Data taken from patent publication US20210147481A1, “PEPTIDE-BASED INHIBITORS OF MARK FAMILY PROTEINS” (Ohio Universtiy, priority 2017, published 2021).
Like-named read-outs stand apart in the source and are kept apart here. Peptide text beside a SMILES is read from it. * marks the point of attachment. 5FAM = O=C1OC2(c3ccc(O)cc3Oc3cc(O)ccc32)c2ccc(C(=O)*)cc21

Key:
[1] = target: MARK2 (Homo sapiens, UniProt Q7KZI7); assay: Antibody-linked fluorescence polarization assay of tR1 phosphorylation by MARK2; type: biochemical; settings: 10 μM FlutR1, MARK2, ATP, antibody versus absence of MARK2, ATP, or antibody
MARK2 (Homo sapiens, UniProt Q7KZI7), sequence (Q7KZI7 whole entry): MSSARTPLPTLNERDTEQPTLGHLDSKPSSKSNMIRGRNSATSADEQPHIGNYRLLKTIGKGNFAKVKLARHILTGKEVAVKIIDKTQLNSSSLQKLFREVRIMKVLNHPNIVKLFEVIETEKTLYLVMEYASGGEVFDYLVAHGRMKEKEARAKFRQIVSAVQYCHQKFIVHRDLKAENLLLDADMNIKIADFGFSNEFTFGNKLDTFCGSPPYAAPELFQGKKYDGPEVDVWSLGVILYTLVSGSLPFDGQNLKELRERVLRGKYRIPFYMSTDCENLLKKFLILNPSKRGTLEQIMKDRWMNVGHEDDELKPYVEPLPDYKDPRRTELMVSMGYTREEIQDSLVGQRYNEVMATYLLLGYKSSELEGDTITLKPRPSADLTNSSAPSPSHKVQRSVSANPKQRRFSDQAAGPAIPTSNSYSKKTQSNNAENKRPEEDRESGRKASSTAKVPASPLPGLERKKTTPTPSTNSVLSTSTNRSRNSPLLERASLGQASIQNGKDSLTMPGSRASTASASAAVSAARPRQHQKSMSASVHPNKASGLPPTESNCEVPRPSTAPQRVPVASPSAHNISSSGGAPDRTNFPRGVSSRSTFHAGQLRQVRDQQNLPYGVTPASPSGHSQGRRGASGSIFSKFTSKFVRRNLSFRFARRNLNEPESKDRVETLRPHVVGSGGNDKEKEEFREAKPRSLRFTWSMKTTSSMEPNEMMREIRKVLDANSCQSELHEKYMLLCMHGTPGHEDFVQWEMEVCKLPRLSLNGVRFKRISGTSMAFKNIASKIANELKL
Description: The ability for MARK2 to phosphorylate tR1 in vitro was further validated by incubating ^FlutR1 peptides with MARK2 and ATP and monitoring the fluorescence polarization of the solution following addition of antibodies specific for hTau pSer262 (FIG. 6C). In these experiments, ^FlutR1 peptides and MARK2 were incubated with and without ATP for 60 minutes at 32° C. in phosphorylation buffer. Following incubation, antibodies specific for hTau pSer262 were added to the reaction and allowed to incubate for an additional 60 minutes at room temperature. Due to the slower tumbling rate of an antibody-linked (and presumably phosphorylated) ^FlutR1 peptide, it is believed that the fluorescence polarization of the phosphorylated tR1 peptide would be higher than that of its un-phosphorylated counterpart.
Analysis of the activity of MARK2 proteins was performed in 60-μL phosphorylation buffer (50 mM Tris-HCl, pH 8.0, 5 mM MgCl2, 2 mM EGTA, 0.5 mM DTT, 0.5 mM benzamidine HCl, 0.5 mM PMSF) containing 100 μM ATP, 10 μM of ^FlutR1, and 10 nM MARK2. The reaction mixture was incubated at 32° C. for 1 hour. […] Fluorescence polarization was then measured using a SpectraMax M5e multi-mode plate reader (Molecular Devices, Sunnyvale, Calif.) in 384-well plates (#3575, Corning, Corning, N.Y.). […]

[2] = system: rat primary cortical neurons
[3] = target: MARK2 (Rattus norvegicus, UniProt O08679); assay: Immunofluorescence of PAO-induced MARK2-mediated tau Ser262 phosphorylation in neurons; type: cell-based
MARK2 (Rattus norvegicus, UniProt O08679), sequence (O08679 whole entry): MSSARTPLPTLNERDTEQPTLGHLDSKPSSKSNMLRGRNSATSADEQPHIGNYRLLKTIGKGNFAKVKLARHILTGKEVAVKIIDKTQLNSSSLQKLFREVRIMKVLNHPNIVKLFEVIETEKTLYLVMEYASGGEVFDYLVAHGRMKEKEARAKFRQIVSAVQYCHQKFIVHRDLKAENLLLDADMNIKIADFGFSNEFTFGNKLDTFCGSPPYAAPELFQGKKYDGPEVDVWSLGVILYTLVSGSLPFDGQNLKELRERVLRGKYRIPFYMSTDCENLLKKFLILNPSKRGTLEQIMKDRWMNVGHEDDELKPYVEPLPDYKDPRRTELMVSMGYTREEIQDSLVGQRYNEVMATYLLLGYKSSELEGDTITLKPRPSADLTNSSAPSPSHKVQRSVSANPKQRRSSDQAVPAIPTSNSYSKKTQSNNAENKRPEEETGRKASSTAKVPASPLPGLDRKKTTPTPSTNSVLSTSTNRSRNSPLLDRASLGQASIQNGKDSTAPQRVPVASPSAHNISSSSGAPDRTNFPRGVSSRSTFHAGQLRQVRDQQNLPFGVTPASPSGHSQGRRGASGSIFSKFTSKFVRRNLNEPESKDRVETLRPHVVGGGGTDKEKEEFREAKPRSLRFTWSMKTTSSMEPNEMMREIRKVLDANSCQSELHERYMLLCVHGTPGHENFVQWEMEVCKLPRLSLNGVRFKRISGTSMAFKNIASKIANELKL

Structure (SMILES): CC[C@H](C)[C@H](NC(=O)[C@H](CCCCN)NC(=O)[C@H](CO)NC(=O)[C@H](CCCCN)NC(=O)[C@@H](NC(=O)[C@H](CC(N)=O)NC(=O)c1ccc2c(c1)C(=O)OC21c2ccc(O)cc2Oc2cc(O)ccc21)C(C)C)C(=O)NCC(=O)N[C@@H](CO)C(=O)N[C@H](C(=O)N[C@@H](CCC(=O)O)C(=O)N[C@@H](CC(N)=O)C(=O)N[C@@H](CC(C)C)C(=O)N[C@@H](CCCCN)C(N)=O)[C@@H](C)O [^FlutR1] (5FAM-NVKSKIGSTENLK-NH2)
- fluorescence polarization after addition of hTau pSer262 antibody [1]: polarization to be highest in solutions containing all reaction components
- intracellular uptake (fluorescence) ([2]; 10 μM FlutR1 alone, 4 hours): distinct fluorescent puncta within the cell body and neurites
- intracellular distribution (fluorescence) ([2]; 10 μM FlutR1 with 50 nM Baf): no fluorescent puncta following treatment and diffuse green fluorescence within the cell soma
- intracellular uptake (fluorescence) ([2]; 10 μM FlutR1 with 5 μM PAO): did not seem to affect the uptake
- intracellular distribution (fluorescence) ([2]; 10 μM FlutR1 with 100 μM CLQ): significant loss of discrete fluorescent puncta
- intracellular uptake (fluorescence) ([2]; 10 μM FlutR1 with 10 mM sodium azide): significant loss of fluorescent puncta within the cell body and neurites

Structure (SMILES): CO/C1=C\C(C)=C\[C@@H](C)[C@@H](O)[C@@H](C)C/C(C)=C/C=C/[C@H](OC)[C@@H]([C@@H](C)[C@@H](O)[C@H](C)[C@@]2(O)C[C@@H](O)[C@H](C)[C@@H](C(C)C)O2)OC1=O [bafilomycin A1, reference compound]
- effect of endosome disruptor alone on PAO-induced MARK2 mediated phosphorylation of tau ([3]; without tR1, 5 μM PAO): Neither bafilomycin A1 nor chloroquine treatments alone affected

Structure (SMILES): CCN(CC)CCCC(C)Nc1ccnc2cc(Cl)ccc12 (centres unmarked) [chloroquine, reference compound]
- effect of endosome disruptor alone on PAO-induced MARK2 mediated phosphorylation of tau [3]: Neither bafilomycin A1 nor chloroquine treatments alone affected
